The subject of data set [1] is Egr-1 mRNA. The experiment in a line: Stability of induced Egr-1 mRNA after actinomycin D, Northern blot, Balb/c 3T3 cells. Type of data set: cell-based, mouse. The settings on record: actinomycin D 25 µg/ml. As to the method:
(A). Quiescent Balb/c 3T3 cells were incubated with either 0.5 µM of okadaic acid or 20% serum for 3 h or 0.5 h, respectively. Actimomycin D (final concentration being 25 µg/ml) was then added. The cells were then harvested at 0.5, 1, 1.5, 2 and 3 h after the addition of actinomycin D. RNA was isolated from these cells and analyzed by Northern blot. The blot was probed with Egr-1 or GADPH cDNA.
Quiescent mouse Balb/c 3T3 fibroblasts were incubated with DMEM containing either 0.5µM okadaic acid or 10% fetal calf serum for the times indicated in Fig. 10. […] Cells were harvested at the indicated time points and extracted for RNA and the RNA subjected to Northern blot analysis (Fig. 10).

The subject of data set [2] is human fibroblasts. The experiment in a line: Total cellular protein synthesis in human fibroblasts. The class given is cell-based. The settings on record: data not shown. The procedure: (§1) Quiescent human fibroblasts were stimulated with MEM containing 0.5 µM okadaic acid in the presence or absence of cycloheximide (10 µg/ml) for the times indicated in Fig. 11. […] Treatment of cells with cycloheximide enhanced the induction of Egr-1 mRNA by okadaic acid at 1.5 and 3 h (Fig. 11). Similarly puromycin, like cycloheximide, also "superinduces" the induction of the Egr-1 mRNA by okadaic acid (data not shown). […] However, in view that protein phosphatase 1 (PP1) and protein phosphatase 2A (PP2A) regulate enzymes associated with cellular protein synthesis (Cohen, Annu. Rev. Biochem. 58, 453-508, 1989) the effect of okadaic acid on protein synthesis in mouse and human fibroblasts was also measured. […] By then the Egr-1 mRNA message was already induced. A corollary to this is a comparison of the amount of ³⁵S-methionine labelled Egr-1 protein immunoprecipitated by R5232 antibodies from protein phosphatase inhibitor-treated and control cells. […] Thus, the induction of the Egr-1 gene by phosphatase inhibitors is unlikely to be mediated by their late inhibitory effects on cellular protein synthesis.

The subject of data set [3] is mouse fibroblasts. The data set is described as follows: Total cellular protein synthesis in mouse fibroblasts. The class given is cell-based. The settings on record: data not shown. The procedure: as §1
In data set [4] the test system is Egr-1 protein. Type of data set: cell-based. The settings on record: 2 h treatment, data not shown. As to the method:
as §1

Data set [5] concerns Egr-1 protein. The data set is described as follows: Western blot analysis of Egr-1 protein from primary human fibroblasts. The class given is cell-based. As to the method:
Quiescent primary human fibroblasts were incubated with MEM containing 0.5 µM of okadaic acid for the times indicated. As a positive control, the quiescent cells were also incubated with medium containing 20% fetal calf serum for 2 h. Total cellular proteins were extracted and subjected to Western blot analysis as described previously (Cao et al, Mol. Cell. Biol. 10, 1931-1939, 1989). The blot was reacted with anti-Egr-1 polyclonal antibody (R5232).
Cellular proteins were extracted from quiescient, okadaic acid-treated and serum-treated human fibroblasts and subjected to Western blot analysis using rabbit polyclonal Egr-1 antibodies. In the control quiescent cells, traces of Egr-1 protein with molecular masses of 80 kDa and 100 kDa were detected. An approximately 6-fold increase of the 80 kDa protein was measured in the cells 2 h after serum stimulation. An approximately 2-fold increase in the 80 kDa Egr-1 protein was detected in the cells after 1 h okadaic acid treatment. However, at 2.5 h after okadaic acid treatment the Egr-1 protein was mostly detected as the 100 kDa moiety rather than as the 80 kDa protein (Fig. 13). […] By 6 h after okadaic acid treatment the cellular level of the 100 kDa Egr-1 protein was reduced (Fig. 13). […]
Background: In western blotting, separated proteins are transferred to a membrane and probed.

Each structure is given as a SMILES string.

A word on the inhibition: it is the relative decrease from the control value, in per cent.

Consider `C=C1[C@@H](O)[C@@H]2O[C@]3(CC[C@H](/C=C/[C@@H](C)[C@@H]4CC(C)=C[C@@]5(O[C@H](C[C@@](C)(O)C(=O)O)CC[C@H]5O)O4)O3)CC[C@H]2O[C@@H]1[C@@H](O)C[C@H](C)[C@H]1O[C@@]2(CCCCO2)CC[C@H]1C` [okadaic acid], for which the “time for which induced Egr-1 mRNA is detectable after actinomycin D treatment” value in data set [1] (0.5 µM) is “up to 5.5 h”. Besides, the “half life of the induced Egr-1 message” value in data set [1] (calculated from the data in Fig. 10) is “about 120 min”. Moreover, the “effect on total cellular protein synthesis (in words)” value in data set [2] (0.5 µM, first 2 h) is on record as “little measurable effect”; in data set [3] (0.5 µM, first 2 h) it was “little measurable effect”. Besides, the inhibition at 0.5 µM in data set [2] (Homo sapiens, Fibroblast, at 4 h) was no more than 50%; in data set [3] (Mus musculus, Fibroblast, at 4 h), no more than 50%. The “amount of 35S-methionine labeled Egr-1 protein relative to control cells” value in data set [4] was 4 to 5 fold. Also, the “level of the 100 kDa Egr-1 protein relative to the 80 kDa Egr-1 protein of control cells” value in data set [5] (0.5 µM, 2.5 h) is reported as 3 to 4 fold. Also, in data set [5] (Homo sapiens, Fibroblast, 1 h, read-out: increase in the 80 kDa Egr-1 protein), the fold induction at 0.5 µM was roughly 2.

Values taken from patent EP0551200A1, “Protein phosphatase inhibitors for use in therapy” (priority 1992, dated 1993).
